{
  "source": "patent US20250325531A1",
  "about": "“TREATMENT OF SYSTOLIC DYSFUNCTION” (MyoKardia, Inc., priority 2024, published 2025)",
  "key": {"healthy subjects": {"tested_on": "healthy subjects", "assay": "Safety and tolerability (AEs, ECG, hs-troponin I) after single ascending doses in healthy volunteers", "type": "in vivo, human", "protocol": "PK and PD data were collected as described herein. […] Changes from Baseline at each postbaseline timepoint were assessed.\nA 12-lead electrocardiogram (ECG) was obtained after the subjects had rested in a supine position for at least 10 minutes. […] Digital 12-lead ECG evaluations was performed after 10 minutes of rest at Screening, predose on Day 1 (within 2 hours of dosing), and at various predetermined time points. Each time an ECG was completed, a 10-second paper ECG rhythm strip would also be obtained and maintained in the subject's source documentation.\nThe ECGs were transmitted to the core ECG laboratory who read the recordings in a blinded manner. An automated methodology was utilized with manual over-reading by a cardiologist. The following intervals were measured: RR, PR, QRS, and QT. Heart rate (HR) was calculated as 60/(RR×1000) (with RR expressed in msec) and rounded to the nearest integer.\nCorrected QT interval (QTc) was calculated using the manually over-read QT values per the standard procedures of the central ECG laboratory. Each individual ECG QT value was corrected for HR. The measured QT data were corrected for HR using the Fridericia correction QTcF and the Bazzett method (QTcB) as per the following formulae/method (with QT, RR and QTc expressed in msec): […]\nAny abnormal findings judged by the investigator to be clinically important were recorded as adverse events (AEs). AEs were mapped to system organ classes (SOCs) and preferred terms (PTs) using the Medical Dictionary for Regulatory Activities (MedDRA). AEs were monitored during the study and the data analyzed with respect to overall incidence, severity, and potential relationship to study medication. The blinded AEs were presented to the SRC for review after each cohort to aid in their decision on the dose of the subsequent cohort or if the study should be terminated. […] No ECG changes or symptoms were noted.\nFor the final analysis, the AEs were grouped by treatment group with all of the subjects who received placebo pooled as 1 group. AEs with onset on or after the first dose of study medication, or with an onset before the first dose of study medication that increased in severity on or after the first dose of study medication. Treatment-emergent AEs (defined as AEs starting […]) were summarized for the Safety Analysis Population by MedDRA SOC and PT, and by severity and relationship to treatment. Severe and life-threatening AEs, SAEs, and AEs leading to study withdrawal, if any, were presented in data listings.\nSerum samples were drawn for hs-troponin I. Analyses were performed using the Abbott Architect STAT High Sensitivity Troponin I assay."}, "[1]": {"tested_on": "patients with stable HFrEF", "assay": "Safety and tolerability (TEAEs, troponin, ECG, Holter) in SAD cohorts, patients with stable HFrEF", "type": "in vivo, human", "protocol": "Safety and efficacy assessments were conducted by measuring patients' vital signs and laboratory parameters; performing TTE to measure, e.g., systolic ejection time; performing electrocardiograms (e.g., 12-lead ECG), real-time ECG telemetry (e.g., at least 3-lead), and Holter ECG; and measuring levels of troponin (e.g., troponin I and/or troponin T) and 4β-hydroxycholesterol.\nThe following safety laboratory parameters were measured: (1) hematology parameters (CBC, including differential count, and platelet count); (2) serum chemistry parameters (e.g., sodium, potassium, chloride, bicarbonate, calcium, magnesium, urea, creatinine, ALP, ALT, AST, total bilirubin, glucose, and CPK); and (3) urinalysis parameters (e.g., pH, protein, glucose, leukocyte cstcrasc, and blood).\nAbnormal and/or rising troponin values (as per investigator's judgment and taking into account potential baseline troponin elevation frequently observed in heart failure) led to the patient being clinically evaluated for possible myocardial ischemia. […] The entire clinical context (e.g., signs, symptoms, new ECG changes, new troponin, and CK-MB abnormalities) was evaluated and correlated with any other relevant clinical findings, patient's medical history, and laboratory data to determine the clinical significance of the findings. Troponin results performed on Day 2 of Part 1 (SAD) and Day 10 of Part 2 (MAD) at a local lab were reviewed prior to the patient being discharged the next day.\nPrimary endpoints for this study (safety measures) included the following: treatment-emergent AEs and SAEs; ECG recordings, interpretation, and intervals; vital signs; serum Troponin I concentrations; laboratory abnormalities; and physical examination abnormalities."}, "[2]": {"settings": "SAD Cohorts 1 and 2, 175 mg (n = 8)"}, "[3]": {"settings": "SAD Cohorts 1 and 2, 350 mg (n = 8)"}, "[4]": {"settings": "SAD Cohorts 1 and 2, 400 mg Split Dose (n = 4)"}, "[5]": {"settings": "SAD Cohorts 1 and 2, 550 mg Split Dose (n = 2)"}, "[6]": {"settings": "SAD Cohorts 1 and 2, Total Active (n = 12)"}},
  "data": [
    {"compound": "Cn1cc(S(=O)(=O)[C@@](C)(F)C2CCN(C(=O)Nc3ccon3)CC2)c(C(F)F)n1", "note": "[Compound I, (R)-4-(1-((3-(difluoromethyl)-1-methyl-1H-pyrazol-4-yl)sulfonyl)-1-fluoroethyl)-N-(isoxazol-3-yl) piperidine-1-carboxamide]", "values": [
      {"measurement": "subjects with AEs related to treatment", "setting": "healthy subjects; 50 mg (50.0%)", "value": 3, "unit": "subjects"},
      {"measurement": "serious AE, one subject", "setting": "healthy subjects; 100 mg, 16-22 hours postdosing", "value": "short duration of complete AV block"},
      {"measurement": "subjects with AEs related to treatment", "setting": "healthy subjects; 350 mg (50.0%)", "value": 3, "unit": "subjects"},
      {"measurement": "hs-troponin I concentration, one subject", "setting": "healthy subjects; 525 mg, 6 hours postdose, upper limit of normal 15", "value": 16, "unit": "ng/L"},
      {"measurement": "maximum troponin I level, one subject", "setting": "[1]; 550 mg, 24 hours post-dose (4×ULN)", "value": 0.12, "unit": "ng/mL"},
      {"measurement": "TEAE: Any SOC, any PT", "setting": "[1]; [2]", "value": "2 (25.0) n (%)"},
      {"measurement": "TEAE: Dyspnea", "setting": "[1]; [2]", "value": "1 (12.5) n (%)"},
      {"measurement": "TEAE: Fatigue", "setting": "[1]; [2]", "value": "1 (12.5) n (%)"},
      {"measurement": "TEAE: Infusion site discomfort", "setting": "[1]; [2]", "value": "1 (12.5) n (%)"},
      {"measurement": "TEAE: Urinary tract infection", "setting": "[1]; [2]", "value": "1 (12.5) n (%)"},
      {"measurement": "TEAE: Any SOC, any PT", "setting": "[1]; [3]", "value": "5 (62.5) n (%)"},
      {"measurement": "TEAE: Bursitis", "setting": "[1]; [3]", "value": "1 (12.5) n (%)"},
      {"measurement": "TEAE: Diarrhoea", "setting": "[1]; [3]", "value": "1 (12.5) n (%)"},
      {"measurement": "TEAE: Hypomagnesemia", "setting": "[1]; [3]", "value": "1 (12.5) n (%)"},
      {"measurement": "TEAE: Oral contusion", "setting": "[1]; [3]", "value": "1 (12.5) n (%)"},
      {"measurement": "TEAE: Proteinuria", "setting": "[1]; [3]", "value": "1 (12.5) n (%)"},
      {"measurement": "TEAE: Anemia", "setting": "[1]; [4]", "value": "1 (25.0) n (%)"},
      {"measurement": "TEAE: Any SOC, any PT", "setting": "[1]; [4]", "value": "3 (75.0) n (%)"},
      {"measurement": "TEAE: Neck pain", "setting": "[1]; [4]", "value": "1 (25.0) n (%)"},
      {"measurement": "TEAE: Orthostatic hypotension", "setting": "[1]; [4]", "value": "1 (25.0) n (%)"},
      {"measurement": "TEAE: Ventricular extrasystoles", "setting": "[1]; [4]", "value": "1 (25.0) n (%)"},
      {"measurement": "TEAE: Any SOC, any PT", "setting": "[1]; [5]", "value": "1 (50.0) n (%)"},
      {"measurement": "TEAE: Cardiac discomfort", "setting": "[1]; [5]", "value": "1 (50.0) n (%)"},
      {"measurement": "TEAE: Dyspnea", "setting": "[1]; [5]", "value": "1 (50.0) n (%)"},
      {"measurement": "TEAE: Troponin increase", "setting": "[1]; [5]", "value": "1 (50.0) n (%)"},
      {"measurement": "TEAE: Anemia", "setting": "[1]; [6]", "value": "1 (8.3) n (%)"},
      {"measurement": "TEAE: Any SOC, any PT", "setting": "[1]; [6]", "value": "10 (83.3) n (%)"},
      {"measurement": "TEAE: Bursitis", "setting": "[1]; [6]", "value": "1 (8.3) n (%)"},
      {"measurement": "TEAE: Cardiac discomfort", "setting": "[1]; [6]", "value": "1 (8.3) n (%)"},
      {"measurement": "TEAE: Diarrhoea", "setting": "[1]; [6]", "value": "1 (8.3) n (%)"},
      {"measurement": "TEAE: Diverticulitis", "setting": "[1]; [6]", "value": "1 (8.3)− n (%)"},
      {"measurement": "TEAE: Dyspnea", "setting": "[1]; [6]", "value": "1 (8.3) n (%)"},
      {"measurement": "TEAE: Fatigue", "setting": "[1]; [6]", "value": "1 (8.3) n (%)"},
      {"measurement": "TEAE: Hypomagnesemia", "setting": "[1]; [6]", "value": "1 (8.3) n (%)"},
      {"measurement": "TEAE: Infusion site discomfort", "setting": "[1]; [6]", "value": "1 (8.3) n (%)"},
      {"measurement": "TEAE: Neck pain", "setting": "[1]; [6]", "value": "1 (8.3) n (%)"},
      {"measurement": "TEAE: Oral contusion", "setting": "[1]; [6]", "value": "1 (8.3) n (%)"},
      {"measurement": "TEAE: Orthostatic hypotension", "setting": "[1]; [6]", "value": "1 (8.3) n (%)"},
      {"measurement": "TEAE: Proteinuria", "setting": "[1]; [6]", "value": "1 (8.3) n (%)"},
      {"measurement": "TEAE: Troponin increase", "setting": "[1]; [6]", "value": "1 (8.3) n (%)"},
      {"measurement": "TEAE: Urinary tract infection", "setting": "[1]; [6]", "value": "1 (8.3) n (%)"},
      {"measurement": "TEAE: Ventricular extrasystoles", "setting": "[1]; [6]", "value": "1 (8.3) n (%)"}
    ]}
  ]
}
